Experimental data taken from patent publication US20160122386A1, “V1A RECEPTOR AGONISTS” (FERRING B.V., priority 2014, published 2016).
Starred links: 1 amine or outer side, 2 acyl side, 3 side chain; linkers in the order of their positions; H or OH if unused. Positions of bridges follow the written chain, without caps; N, C: chain ends. Non-standard residues stand in square brackets, D forms with d. Residues, ends and D or L forms follow the SMILES beside them. Chains are numbered I, II in the order given. *: point of attachment. d(isoGln) = NC(=O)[C@@H](CCC(=O)[*:2])N[*:1]; dPhe(4-Cl) = N[C@H](Cc1ccc(Cl)cc1)C(=O)O; isoGln = NC(=O)[C@H](CCC(=O)[*:2])N[*:1]; d(εLys) = N[C@H](CCCCN[*:1])C(=O)[*:2]; εLys = N[C@@H](CCCCN[*:1])C(=O)[*:2]; Aad = N[C@@H](CCCC(=O)O)C(=O)O; Cit = NC(=O)NCCC[C@H](N)C(=O)O; Orn = NCCC[C@H](N)C(=O)O; Dab = NCC[C@H](N)C(=O)O; PhAc = O=C(Cc1ccccc1)*

Molecular target: T1, human V1aR (Homo sapiens, UniProt P37288)
T1 construct: expressed in transfected cells
T1 sequence (P37288 whole entry): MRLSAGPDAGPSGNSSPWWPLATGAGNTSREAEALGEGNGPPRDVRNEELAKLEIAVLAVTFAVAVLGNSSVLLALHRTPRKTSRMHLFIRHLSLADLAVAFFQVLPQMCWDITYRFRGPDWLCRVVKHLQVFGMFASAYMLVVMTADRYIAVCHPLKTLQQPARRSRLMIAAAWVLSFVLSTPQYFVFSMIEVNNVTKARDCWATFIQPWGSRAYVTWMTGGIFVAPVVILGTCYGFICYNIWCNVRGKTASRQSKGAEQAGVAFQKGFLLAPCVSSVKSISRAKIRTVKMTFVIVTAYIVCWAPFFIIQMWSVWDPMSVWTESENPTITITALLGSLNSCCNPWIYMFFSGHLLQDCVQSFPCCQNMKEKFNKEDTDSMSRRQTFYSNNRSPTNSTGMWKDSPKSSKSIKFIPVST
Assay: Agonist activity at vasopressin V1a receptors, cell-based FLIPR calcium assay
Settings: for Emax: read-out: Efficacy Avg. (%)
Method: Efficacy (% MPE) is also determined as the percentage of maximal possible effect. This agonist assay utilizes cells from a stable cell line (HEK-flpin) expressing the vasopressin V1a receptor. Intracellular calcium increase in response to agonist is measured through real-time fluorescence of an intracellular calcium-sensitive dye. Cells are exposed to varying concentrations of test agonist compounds whereupon release of intracellular calcium is measured to determine the agonist potency and efficacy.
The cell line stably expresses the lacZ-Zeocin™ fusion gene and is designed for use with the Flp-In™ expression vector containing the gene of interest and the Flp recombinase expression plasmid, pOG44. The cell line contains a single integrated Flp Recombination Target (FRT) site from pFRT/lacZeo or pFRT/lacZeo2. To generate the HEK-flpin cell line stably expressing the human V1aR, the cells were co-transfected with the Flp-In™ expression vector containing the gene of interest (pcDNA5/FRT-hV1aR) and the Flp recombinase expression plasmid pOG44. Flp recombinase mediates insertion of the Flp-In™ expression vector into the genome at the integrated FRT site through site-specific DNA recombination. Stable cell lines expressing the hV1aR from the Flp-In™ expression vector can be generated by selection using hygromycin B. See Life Technologies/Invitrogen manual, Growth and Maintenance of Flp-In™ Cell Lines, Version E, published Feb.
Efficacy of this compound was set to be 100%. A stock solution of 5 mM was made up in DMSO and stored at −20° C.
HEK-flpin-hV1aR, cmcqV1aR, dV1aR and pV1aR cells were maintained in DMEM containing 10% (v/v) FBS-HI, 4 mM GlutaMAX™-I, 25 μg/mL Hygromycin B at 37° C. under 5% CO2 in a humidified atmosphere. Subculture was achieved by splitting semi-confluent cultures 1:3 to 1:6.
All compounds were made up in 100% DMSO at 10 mM stock concentrations and stored at −20° C. The compounds were allowed to thaw just before the assay. […] Typical dilution procedure of 10× final assay concentration involved a 1:100 top dilution (e.g., 2 μl Stock into 198 μl dilution medium) followed by half-log serial dilutions (e.g., 25.3 μl into 54.7 μl dilution medium supplemented with 1% DMSO (v/v)). (Dilution media consisted of phenol-red free DMEM containing 10% FBS-HI, 4 mM GlutaMAX™-I). […] The final DMSO concentration in the assay was 0.1%.
Loading Buffer was prepared by dissolving 1 vial of Calcium 4 Assay reagent in 100 mL of 1× HBSS-20 mM Hepes buffer.
The cells were loaded with Loading Buffer as follows. Cell plates were removed from the incubator and 20 μl of Loading Buffer containing probenecid (2.5 mM) was added to each well. The cells were incubated for 1 hr at 37° C. under 5% CO2 in a humidified atmosphere. The calcium image was obtained as follows.
The cell plates were transferred to FLIPR Tetra, along with a 384 well V-bottom plate pre-loaded with half-log concentrations of test compounds at 10× final test concentrations. The remaining steps of the assay were carried forward by FLIPR Tetra. A baseline reading was taken at 1-second (s) intervals for 5s followed by the addition of 5 μl of 10× compounds (test, reference, or Blank). The agonist-induced fluorescence signal was then measured for 180 s with initial 120 readings at 1-second intervals followed by 20 readings at 3-second intervals. Overall, each well in the FLIPR assay was composed of the following components in a total volume of 50 μl: 20 μl cells; 20 μl Calcium 4 Loading Buffer; […] 10× test or reference compound.

## CC[C@H](C)[C@@H]1NC(=O)[C@H](Cc2ccccc2)NC(=O)[C@@H](N)CSSC[C@@H](C(=O)N2CCC[C@H]2C(=O)N[C@@H](CCNC(=O)[C@H](N)CCCCNC(=O)CC[C@@H](NC(=O)[C@H](CCCNC(=N)N)NC(=O)[C@@H]2CCCN2C(=O)[C@H](C)NC(=O)[C@H](CC(N)=O)NC(=O)[C@H](CCC(N)=O)NC(=O)[C@H](Cc2ccccc2)NC(=O)[C@@H](Cc2ccc(OC)cc2)NC(=O)Cc2ccccc2)C(N)=O)C(=O)NCC(N)=O)NC(=O)[C@H](CC(N)=O)NC(=O)[C@H](CCCC(N)=O)NC1=O [Compound 62] (I: H-CFI[Aad](NH2)NCP[Dab]G-NH2 / II: PhAc-[dY](Me)FQNAPR[d(isoGln)][d(εLys)]; disulfide I:1-I:6; amide I:8-II:C)
  EC50: 2.5 nM
  Emax: 31%

## CC[C@H](C)[C@@H]1NC(=O)[C@H](Cc2ccccc2)NC(=O)[C@@H](N)CSSC[C@@H](C(=O)N2CCC[C@H]2C(=O)N[C@@H](CCNC(=O)[C@H](N)CCCCNC(=O)CC[C@H](NC(=O)[C@H](CCCNC(=N)N)NC(=O)[C@@H]2CCCN2C(=O)[C@H](CCCNC(N)=O)NC(=O)[C@H](CC(N)=O)NC(=O)[C@H](CCC(N)=O)NC(=O)[C@H](Cc2ccccc2)NC(=O)[C@@H](Cc2ccc(OC)cc2)NC(=O)Cc2ccccc2)C(N)=O)C(=O)NCC(N)=O)NC(=O)[C@H](CC(N)=O)NC(=O)[C@H](CCC(N)=O)NC1=O [Compound 49] (I: H-CFIQNCP[Dab]G-NH2 / II: PhAc-[dY](Me)FQN[Cit]PR[isoGln][d(εLys)]; disulfide I:1-I:6; amide I:8-II:C)
  EC50: 0.76 nM
  Emax: 55%

## CC[C@H](C)[C@@H]1NC(=O)[C@H](Cc2ccccc2)NC(=O)[C@@H](N)CSSC[C@@H](C(=O)N2CCC[C@H]2C(=O)N[C@@H](CCCNCCCCCNC(=O)CC[C@H](NC(=O)[C@H](CCCNC(=N)N)NC(=O)[C@@H]2CCCN2C(=O)[C@H](CCCNC(N)=O)NC(=O)[C@H](CC(N)=O)NC(=O)[C@H](CCC(N)=O)NC(=O)[C@H](Cc2ccc(Cl)cc2)NC(=O)[C@@H](Cc2ccc(OC)cc2)NC(=O)Cc2ccccc2)C(N)=O)C(=O)NCC(N)=O)NC(=O)[C@H](CC(N)=O)NC(=O)[C@H](CCC(N)=O)NC1=O [Compound 45]
  EC50: 0.8 nM
  Emax: 72%

## CC[C@H](C)[C@@H]1NC(=O)[C@H](Cc2ccccc2)NC(=O)[C@@H](N)CSSC[C@@H](C(=O)N2CCC[C@H]2C(=O)N[C@@H](CCCNC(=O)[C@@H](N)CCCCNC(=O)CC[C@H](NC(=O)[C@H](CCCNC(=N)N)NC(=O)[C@@H]2CCCN2C(=O)[C@H](CCCNC(=N)N)NC(=O)[C@H](CC(N)=O)NC(=O)[C@@H](NC(=O)[C@H](Cc2ccccc2)NC(=O)[C@@H](Cc2ccc(OC)cc2)NC(=O)Cc2ccccc2)[C@@H](C)O)C(N)=O)C(=O)NCC(N)=O)NC(=O)[C@H](CC(N)=O)NC(=O)[C@H](CCC(N)=O)NC1=O [Compound 22] (I: H-CFIQNCP[Orn]G-NH2 / II: PhAc-[dY](Me)FTNRPR[isoGln][εLys]; disulfide I:1-I:6; amide I:8-II:C)
  EC50: 0.95 nM
  Emax: 29%

## CC[C@H](C)[C@@H]1NC(=O)[C@H](Cc2ccccc2)NC(=O)[C@@H](N)CSSC[C@@H](C(=O)N2CCC[C@H]2C(=O)N[C@@H](CCCNC(=O)[C@@H](N)CCCCNC(=O)CC[C@H](NC(=O)[C@H](CCCNC(=N)N)NC(=O)[C@@H]2CCCN2C(=O)[C@H](CCCNC(=N)N)NC(=O)[C@H](CC(N)=O)NC(=O)[C@H](CCC(N)=O)NC(=O)[C@H](Cc2ccccc2)NC(=O)[C@@H](Cc2ccc(Cl)cc2)NC(=O)Cc2ccccc2)C(N)=O)C(=O)NCC(N)=O)NC(=O)[C@H](CC(N)=O)NC(=O)[C@H](CCC(N)=O)NC1=O [Compound 25] (I: H-CFIQNCP[Orn]G-NH2 / II: PhAc-[dPhe(4-Cl)]FQNRPR[isoGln][εLys]; disulfide I:1-I:6; amide I:8-II:C)
  EC50: 1.4 nM
  Emax: 49%
